What was measured:
Type in all cases: binding, synthetic construct
protein 18-19 (N32D) = target: T1, protein 18-19 (N32D); experiment: equilibrium ultrafiltration with γ-[…]-ATP
T1 construct: 80-residue artificial protein as N-terminal MBP fusion

protein 18-19 (D65V) = target: T2, protein 18-19 (D65V); experiment: equilibrium ultrafiltration with γ-[…]-ATP
T2 construct: 80-residue artificial protein as N-terminal MBP fusion

protein 18-19 = target: T3, protein 18-19; experiment: X-ray crystal structure ([…] Å) and equilibrium ultrafiltration with γ-[…]-ATP
T3 construct: Kd measured on the N-terminal MBP fusion; crystal structure model residues 9-71

Nc1ncnc2c1ncn2[C@@H]1O[C@H](COP(=O)(O)OP(=O)(O)OP(=O)(O)O)[C@@H](O)[C@H]1O [ATP]
Kd (protein 18-19 (N32D)): 360 ± 12 nM | Kd (protein 18-19 (D65V)): 640 ± 28 nM | Kd (protein 18-19): 1100 ± 78 nM

Reference: article PMC1867856, “Structural Insights into the Evolution of a Non-Biological Protein: Importance of Surface Residues in Protein Fold Optimization” (PLoS ONE, 2007)
